{"source": "patent US8673587B2", "about": "“Methods for identifying allosteric and other novel acyl-coenzyme A:cholesterol acyltransferase inhibitors” (Trustees of Dartmouth College, priority 2010, dated 2014)", "origin": "cited, not measured here", "test_system": "lysohpospholipid acyltransferase (LPAT)", "conditions": "cited from earlier work"}
{"smiles": "CCCCCCCCCCC(C)(C)C(=O)Nc1c(OC)cc(OC)cc1OC", "note": "[CI976]", "values": [{"measurement": "inhibition of LPAT", "value": "has been shown to inhibit"}]}
